Experimental data taken from patent US7968554B2, “Pyrazolo[3,4-d]pyrimidine derivatives” (Hoffman-La Roche Inc., priority 2007, dated 2011).

biological target: T1, b-Raf wild-type (Homo sapiens, UniProt P15056); assay: b-Raf wild-type HTRF assay with 6H-MEK as substrate (dose response); type: biochemical; conditions: kinase enzyme inhibition, 6H-MEK substrate, read-out: bRaf wild-type IC50
T1 construct: recombinant human b-Raf residues 416-end with N-terminal GST-tag; purchased Upstate 14-530M; host or cells: baculovirus, Sf21 insect cells
T1 sequence (P15056 416-766 limits assumed): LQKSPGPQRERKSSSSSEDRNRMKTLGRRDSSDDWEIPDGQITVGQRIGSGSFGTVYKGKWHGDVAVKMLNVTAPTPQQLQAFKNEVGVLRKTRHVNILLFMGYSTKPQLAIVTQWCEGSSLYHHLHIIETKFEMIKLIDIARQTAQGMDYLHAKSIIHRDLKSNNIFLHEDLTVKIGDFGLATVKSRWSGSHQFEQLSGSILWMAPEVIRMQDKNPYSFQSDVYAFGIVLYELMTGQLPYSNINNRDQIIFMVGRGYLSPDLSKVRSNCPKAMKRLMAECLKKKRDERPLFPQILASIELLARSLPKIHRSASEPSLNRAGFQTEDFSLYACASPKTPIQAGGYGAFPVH
Method: Kinase Enzyme Inhibition Assay (IC50)
b-Raf Wild-Type HTRF Assay With 6H-MEK as Substrate (Dose Response)
The assay utilizes 6H-MEK as the substrate. Upon b-Raf WT phosphorylation, phosphorylated 6H-MEK is detected with rabbit anti-phospho-MEK1/2, Eu-labeled anti-rabbit, and APC-labeled anti-6H antibodies.
Reagents and Instruments:
• Enzyme: recombinant human b-Raf residues 416-end with N-terminal GST-tag from Upstate; (expressed by baculovirus in Sf21 insect cells), 0.26 mg/mL (3.87 μM assuming a molecular weight of 67.2 kD) Cat. #14-530M, Lot #25502AU, stored at −80° C. • Substrate: WT full-length 6H-MEK, 4.94 mg/mL (154.4 μM assuming a MW of 32 kD) stored at −15° C. • Antibodies: Rabbit (α-P-(Ser 217/221)-MEK-1/2 Ab (from Cell Signaling, Cat. #9121B, Lot 14); Eu-(α-rabbit IgG (from Wallac, Cat. #AD0083, Lot 318663, 710 ug/mL, 4.4 μM); (α-6H-SureLight-APC (from Martek, Cat. #AD0059H, Lot E012AB01, 3.03 μM). • Reader: Envision from PerkinElmer, HTRF reading mode with 412 mirror • Assay Plate: Matrix all-black polypropylene plates (Cat. #4344) • Others: Weidman 384 polypropylene plates (REMP) for compound plate. Assay Procedure: • (1) Prepare Kinase Assay Buffer (KAB): 50 mM HEPES (HyClone) pH7, 10 mM MgCl2, 1 mM DTT, 0.1 mM […], and 0.3 mg/ml BSA. • (2) Prepare 6H-MEK (150 nM) in KAB. Add 12 μL/well to the assay plate. • (3) Prepare ATP (66 μM) in KAB. • (4) Dilute compounds to 2.4 mM and any positive controls to 480 μM in DMSO. Perform 10-point 3× dilution in DMSO. Withdraw 2.5 μL/well of DMSO solution and add to 27.5 μL/well ATP solution in (3). • (5) Mix, then add 6 μL/well of solution in (4) to the assay plate for a DMSO concentration of 2.1% during MEK phosphorylation. • (6) Prepare b-Raf WT (100 μM) in KAB. • (7) Add 6 μL/well of KAB in columns 1-2 and 6 μL/well of b-Raf WT in columns 3-24. • (8) Incubate at 37° C. for 30 min. • (9) Prepare rabbit (α-P-(Ser 217/221 )-MEK-1/2 Ab (1:200 from stock) in AB1: 50 mM HEPES pH7, 0.2 mg/ml BSA, and 43 mM EDTA. • (10) To stop reaction, add 6 μL/well of solution from (9) to the assay plate and incubate at 37° C. for 30 min. • (11) Prepare Eu-(α-rabbit IgG (9 nM) and (α-6H-SureLight-APC (180 nM) in AB2: 50 mM HEPES pH7 and 0.2 mg/mL BSA. • (12) Add 6 μL/well of solution from (11) to the assay plate. • (13) For determining the spectrum cross talk factor, prepare 2 samples following steps (1) to (10). For the blank sample, add 6 μL/well of AB2. For the cross talk factor sample, add 6 μL/well of Eu-anti rabbit IgG (9 nM). • (14) Incubate at room temperature for 1.5 hours. • (15) Read HTRF signals at 615 nm and 665 nm on the Envision. Normalize HTRF signals after spectrum cross-talk correction. b-Raf V600E Mutant HTRF Assay With 6H-MEK as Substrate (Dose Response) Assay Principle: […]

Row | SMILES | IC50 [µM]
1 | Cn1nc(COc2cccc(OCc3ccccc3)c2)c2c(N)ncnc21 [Example 7, 3-(3-Benzyloxy-phenoxymethyl)-1-methyl-1H-pyrazolo[3,4-d]pyrimidin-4-ylamine] | > 10
2 | Cc1nnc(-c2ccc(C)c(OCc3nn(C)c4ncnc(N)c34)c2)o1 [Example 21, 1-Methyl-3-[2-methyl-5-(5-methyl-[1,3,4]oxadiazol-2-yl)-phenoxymethyl]-1H-pyrazolo[3,4-d]pyrimidin-4-ylamine] | > 10
3 | Cc1ccc(NC(=O)c2ccc(NCCO)c(Cl)c2)cc1OCc1nn(C)c2ncnc(N)c12 [Example 9, N-[3-(4-Amino-1-methyl-1H-pyrazolo[3,4-d]pyrimidin-3-ylmethoxy)-4-methyl-phenyl]-3-chloro-4-(2-hydroxy-ethylamino)-benzamide] | < 10
4 | Cc1ccc(C(=O)Nc2ccc(Cl)cc2)cc1OCc1nn(C)c2ncnc(N)c12 [Example 17, 3-(4-Amino-1-methyl-1H-pyrazolo[3,4-d]pyrimidin-3-ylmethoxy)-N-(4-chloro-phenyl)-4-methyl-benzamide] | < 10

Continued, values first:

Row | IC50 [µM] | SMILES
5 | < 10 | Cc1ccc(OCc2ccccc2)cc1OCc1nn(C)c2ncnc(N)c12 [Example 15, 3-(5-Benzyloxy-2-methyl-phenoxymethyl)-1-methyl-1H-pyrazolo[3,4-d]pyrimidin-4-ylamine]
6 | > 10 | Cc1noc(-c2ccc(C)c(OCc3nn(C)c4ncnc(N)c34)c2)n1 [Example 13, 4-Amino-1-1-methyl-3-[2-methyl-5-(3-methyl-[1,2,4]oxadiazol-5-yl)-phenoxymethyl]-1H-pyrazolo[3,4-d]pyrimidine]
7 | < 10 | Cc1ccc(NC(=O)c2cccc(Cl)c2)cc1OCc1nn(C)c2ncnc(N)c12 [Example 11, N-[3-(4-Amino-1-methyl-1H-pyrazolo[3,4-d]pyrimidin-3-ylmethoxy)-4-methyl-phenyl]-3-chloro-benzamide]
8 | < 10 | Cc1ccc(OCc2ccc(Cl)cc2)cc1OCc1nn(C)c2ncnc(N)c12 [Example 19, 3-[5-(4-Chloro-benzyloxy)-2-methyl-phenoxymethyl]-1-methyl-1H-pyrazolo[3,4-d]pyrimidin-4-ylamine]
